Read-outs that look alike come from different tables or passages of the source.
Settings: mouse, in vivo; for Urine and Feces, percent of total injected radioactivity: iv

With Tc-99m-1,5-diaminopentylphosphonic acid the “Localization / excretion of the complex (in words)” value was “high uptake of the complex by the kidney without rapid excretion”, the “Urine and Feces, percent of total injected radioactivity” value (shortened to “Urine and Feces, percent”) (0 h) was 0.0 and the “Urine and Feces, percent” value (0.5 h) was 47.3. For the same substance, the “Urine and Feces, percent” value (1 h) was 55.0, the “Urine and Feces, percent” value (2 h) was 61.3 and the “Urine and Feces, percent” value (24 h) was 83.2.
In the case of Tc-99m-1-aminobutylphosphonic acid, the “Localization / excretion of the complex (in words)” value is reported as “rapidly excreted via the kidney”, the “Urine and Feces, percent” value (0 h) is reported as 0.0 and the “Urine and Feces, percent” value (0.5 h) is reported as 74.2. For the same substance, the “Urine and Feces, percent” value (1 h) was 85.0, the “Urine and Feces, percent” value (2 h) was 90.7 and the “Urine and Feces, percent” value (4 h) was 86.6.

From patent US3976762A (priority 1974, dated 1976)
